Reference: paper PMC6211253, “Design of selective COX-2 inhibitors in the (aza)indazole series. Chemistry, in vitro studies, radiochemistry and evaluations in rats of a [^18F] PET tracer” (Journal of Enzyme Inhibition and Medicinal Chemistry, 2018)
Where two headings read alike, the source gives them in different places.

Experiments:
human recombinant COX-2 = target: T1, human recombinant COX-2 (Homo sapiens, UniProt P35354); assay: COX Inhibitor Screening Kit (Cayman), fluorescence-based, COX-2 inhibition; assay type: biochemical; settings: for COX-2 activity in words: SAR discussion; for fold decrease in COX-2 activity versus analog: 41 and 42 versus 14, 17 versus 16
T1 construct: purchased Cayman Chemical 700100, No. 760111
T1 sequence (P35354 18-604): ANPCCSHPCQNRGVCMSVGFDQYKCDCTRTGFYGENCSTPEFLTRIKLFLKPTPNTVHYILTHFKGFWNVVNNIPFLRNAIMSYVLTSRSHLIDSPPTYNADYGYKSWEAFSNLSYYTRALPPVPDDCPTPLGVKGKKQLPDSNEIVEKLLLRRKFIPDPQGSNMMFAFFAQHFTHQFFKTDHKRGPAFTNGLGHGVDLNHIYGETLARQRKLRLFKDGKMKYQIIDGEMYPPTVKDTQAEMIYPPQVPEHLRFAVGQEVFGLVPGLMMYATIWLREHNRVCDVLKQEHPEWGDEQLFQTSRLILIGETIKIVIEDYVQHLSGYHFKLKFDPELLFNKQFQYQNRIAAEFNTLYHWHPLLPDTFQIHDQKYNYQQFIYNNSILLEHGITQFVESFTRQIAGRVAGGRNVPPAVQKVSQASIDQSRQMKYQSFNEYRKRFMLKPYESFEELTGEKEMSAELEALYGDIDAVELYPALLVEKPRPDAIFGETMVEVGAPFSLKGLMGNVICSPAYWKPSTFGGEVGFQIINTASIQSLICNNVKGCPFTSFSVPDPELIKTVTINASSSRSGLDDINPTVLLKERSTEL

COX-2 = target: T2, COX-2 (Rattus norvegicus, UniProt P35355); assay: Ex vivo cerebral biodistribution and blocking studies in quinolinic acid lesioned rats; parameters: species or system Wistar rats
T2 construct: from tissue; host or cells: brain regions of QA-lesioned Wistar rats (in vivo injection, ex vivo counting)
T2 sequence (P35355 18-604): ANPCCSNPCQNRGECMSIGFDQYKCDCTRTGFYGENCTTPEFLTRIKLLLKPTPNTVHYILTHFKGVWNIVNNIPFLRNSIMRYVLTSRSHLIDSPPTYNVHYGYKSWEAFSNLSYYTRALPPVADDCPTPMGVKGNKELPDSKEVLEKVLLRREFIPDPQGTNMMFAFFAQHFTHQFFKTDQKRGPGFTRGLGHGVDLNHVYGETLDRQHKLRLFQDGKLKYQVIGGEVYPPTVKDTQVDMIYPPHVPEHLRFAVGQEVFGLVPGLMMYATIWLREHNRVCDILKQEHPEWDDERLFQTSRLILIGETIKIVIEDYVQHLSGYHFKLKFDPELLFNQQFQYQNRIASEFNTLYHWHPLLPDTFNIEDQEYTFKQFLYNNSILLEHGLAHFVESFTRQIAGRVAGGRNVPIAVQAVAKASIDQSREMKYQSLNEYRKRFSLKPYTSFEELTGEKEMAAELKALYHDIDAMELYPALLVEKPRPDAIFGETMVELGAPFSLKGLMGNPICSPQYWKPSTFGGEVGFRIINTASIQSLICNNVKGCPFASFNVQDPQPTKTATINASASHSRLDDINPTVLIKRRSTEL
From the text: This model consists of a unilateral intrastriatal injection of quinolinic acid to induce excitotoxicity mediated via NMDA receptor activation. This animal model is well known in the literature to produce an inflammatory reaction induced by COX-2 activation in lesioned cerebral parenchyma.
The cerebral biodistribution of [^18F]16 in rats lesioned with QA was expressed as percent of injected dose per gram of tissue (%ID/g) and is shown in Figure 3.
Figure 3. Cerebral biodistribution of [^18F]16, 60 min after i.v. injection in rats, 7 days after focal intrastriatal injection of 150 nmol of quinolinic acid. In the “celecoxib” and “cold 16” groups, animals received an i.v. pre-injection (15 min) of the corresponding compound (3 mg/kg). Results are expressed as % injected dose/g tissue ± SEM. Cx: cortex; Stri: striatum; Hip: hippocampus, Cb: cerebellum.
Blocking in vivo experiments, consisting of a pretreatment with either celecoxib or cold 16 (3 mg/kg) 15 min before injection of the radiotracer, are also presented in Figure 3. […] This confirmed that the low in vivo accumulation observed consisted of nonspecific binding.
Animals. All procedures were conducted in accordance with the requirements of the European Community Council for the care of laboratory animals 2010/63/EU, and approved by the regional ethical committee (Authorization N°2015022011523044). Experiments were carried out on adult Wistar rats (Centre d’Elevage René Janvier, Le Genest-St-Isle, France) weighing 276 ± 19 g at the beginning of the experiments. Animals were housed in groups of two per cage in a temperature and humidity controlled environment (temperature 21 °C ± 1 °C; hygrometry 55% ± 5%), under a 12 h light/dark cycle with food and water available ad libitum.
Surgery: Surgery was performed under isoflurane (AErrane, Baxter, France) anaesthesia (4% for anaesthesia induction and thereafter 2% for its maintenance, in N2O-O2: 70%-30%). The animal's body temperature (36.8 ± 0.5 °C) was monitored with a homoeothermic probe throughout surgery. A unilateral striatal QA lesion was induced in 18 adult male Wistar rats as previously described^14. This procedure results in a well-delineated reproducible excitotoxic lesion to the striatum and ipsilateral cortex.
Ex vivo cerebral biodistribution studies were performed with [^18F]16 in QA lesioned animals at 7 days post lesion (n=6 per group). Rats were i.v. injected (penis vein) with [^18F]16 (2.5 ± 1 MBq) in 300 μL normal saline). […] Animals were sacrificed by decapitation 60 min post [^18F]16 injection. The whole brain was quickly removed and several brain areas (cerebellum, left and right hippocampus, left and right frontal cortex, and left and right striatum), together with the femur, to detect potential in vivo defluorination of the tracer, were dissected and weighed, and their radioactivity was measured using an automated gamma counter (2480 Gamma counter Wizard, Perkin Elmer). The percentage of injected dose per gram tissue (%ID/g) was calculated by comparison with samples to standard dilutions of the initial injected solution.
Statistical analysis: Results were expressed as mean ± standard error of the mean (SEM). Groups of rats (control vs unlabeled compound 16 preinjection, or control vs celecoxib preinjection) were compared using the Mann–Whitney test. Comparisons of binding between ipsi- and contralateral brain structures were performed using the Wilcoxon one-tailed test. The level of significance was p<0.05 (XLStat software®).

[1] = means of triplicates, except DuP-697 (n = 27) and Celecoxib (n = 5)

Row | Structure (SMILES) | melting point | IC50 (human recombinant COX-2; [1]) | further results
1 | COc1cncc(-c2c3ccccc3nn2-c2ccc(S(C)(=O)=O)cc2)c1 [compound 25, 3-(5-Methoxy-3-pyridyl)-2-(4-methylsulfonylphenyl)indazole] | 215 to 217 °C | > 25 µM | –
2 | NS(=O)(=O)c1ccc(-n2nc3ccccc3c2-c2ccc([18F])cc2)cc1 [[^18F]16, 4-[3-(4-[^18F]Fluorophenyl)indazol-2-yl]benzenesulfonamide] | – | – | defluorination in vivo (COX-2; from femur uptake, rats): negligible defluorination; decrease in accumulation after blocking pretreatment (COX-2; pretreatment with celecoxib or cold 16 (3 mg/kg i.v.) 15 min before radiotracer): In none of these experiments was a decrease in [^18F]16 accumulation observed; bone uptake in the femur (COX-2; rats, 60 min after i.v. injection): 0.154 ± 0.032 %ID/g tissue; accumulation in activated brain areas compared to contralateral striatum and cortex (COX-2; rats, 7 days after intrastriatal QA, 60 min after i.v. injection): no statistically significant difference; passage through the blood-brain-barrier (BBB) (COX-2; rats, preliminary results): low passage
3 | CCOc1ncc(-c2c3ccccc3nn2-c2ccc(S(C)(=O)=O)cc2)cn1 [compound 27, 3-(2-Ethoxypyrimidin-5-yl)-2-(4-methylsulfonylphenyl)indazole] | 217 to 219 °C | > 25 µM | COX-2 activity in words (human recombinant COX-2): totally inactive
4 | NS(=O)(=O)c1ccc(-n2nc3ccccc3c2-c2ccc([N+](=O)[O-])cc2)cc1 [compound 42, 4-[3-(4-Nitrophenyl)indazol-2-yl]benzenesulfonamide] | 221 to 223 °C | – | fold decrease in COX-2 activity versus analog (human recombinant COX-2): 4 fold
5 | CS(=O)(=O)c1ccc(-n2nc3ccccc3c2-c2ccc(F)nc2F)cc1 [compound 23, 3-(2,6-Difluoro-3-pyridyl)-2-(4-methylsulfonylphenyl)indazole] | 84 to 86 °C | > 25 µM | –
6 | NS(=O)(=O)c1ccc(-n2nc3ccccc3c2-c2cccc(F)c2)cc1 [compound 17, 4-[3-(3-Fluorophenyl)indazol-2-yl]benzenesulfonamide] | > 250 °C | 4.2 ± 0.4 µM | fold decrease in COX-2 activity versus analog (human recombinant COX-2): 10 fold
7 | CS(=O)(=O)c1ccc(-c2c3ccccc3nn2-c2ccc(F)cc2)cc1 [compound 15, 2-(4-Fluorophenyl)-3-(4-methylsulfonylphenyl)indazole] | 198 to 200 °C | 2.3 ± 0.5 µM | IC50 (human recombinant COX-2): ≤ 2 µM
8 | CS(=O)(=O)c1ccc(-n2nc3ccccc3c2-c2ccc(F)cc2)cc1 [compound 14, 3-(4-Fluorophenyl)-2-(4-methylsulfonylphenyl)indazole] | 173 to 175 °C | 1.46 ± 0.5 µM | IC50 (human recombinant COX-2): ~1 µM
9 | CS(=O)(=O)c1ccc(-n2nc3ncccc3c2-c2ccc(F)cc2)cc1 [compound 41, 3-(4-Fluorophenyl)-2-(4-methylsulfonylphenyl)pyrazolo[3,4-b]pyridine] | – | 4.75 ± 0.6 µM | fold decrease in COX-2 activity versus analog (human recombinant COX-2): 4 fold
10 | CS(=O)(=O)c1ccc(-n2nc3cnccc3c2-c2ccc(F)cc2)cc1 [compound 40, 3-(4-Fluorophenyl)-2-(4-methylsulfonylphenyl)pyrazolo[3,4-c]pyridine] | – | 4.42 ± 0.6 µM | –
11 | CS(=O)(=O)c1ccc(-n2nc3cccnc3c2-c2ccc(F)cc2)cc1 [compound 39, 3-(4-Fluorophenyl)-2-(4-methylsulfonylphenyl)pyrazolo[4,3-b]pyridine] | 219 to 221 °C | > 25 µM | –

Now from value to molecule, other results behind:

Row | melting point | IC50 (human recombinant COX-2; [1]) | Structure (SMILES) | further results
12 | 146 to 148 °C | 2.98 ± 0.4 µM | COc1ccc(-c2c3ccccc3nn2-c2ccc(S(C)(=O)=O)cc2)cn1 [compound 24, 3-(6-Methoxy-3-pyridyl)-2-(4-methylsulfonylphenyl)indazole] | COX-2 activity in words (human recombinant COX-2): moderate activity
13 | 149 to 151 °C | 1.03 ± 0.2 µM | Cc1ccc(-c2c3ccccc3nn2-c2ccc(S(C)(=O)=O)cc2)cc1F [compound 18, 3-(3-Fluoro-4-methyl-phenyl)-2-(4-methylsulfonylphenyl)indazole] | –
14 | 197 to 199 °C | 1.1 ± 0.3 µM | CS(=O)(=O)c1ccc(-n2nc3ccccc3c2-c2ccc(Cl)c(C(F)(F)F)c2)cc1 [compound 21, 3-[4-Chloro-3-(trifluoromethyl)phenyl]-2-(4-methylsulfonylphenyl)indazole] | –
15 | 216 to 218 °C | > 25 µM | CS(=O)(=O)c1ccc(-n2nc3ccccc3c2-c2ccc(F)nc2)cc1 [compound 22, 3-(6-Fluoro-3-pyridyl)-2-(4-methylsulfonylphenyl)indazole] | –
16 | 138 to 140 °C | > 25 µM | CCOc1ccc(-c2c3ccccc3nn2-c2ccc(S(C)(=O)=O)cc2)cc1F [compound 19, 3-(4-Ethoxy-3-fluoro-phenyl)-2-(4-methylsulfonylphenyl)indazole] | –
17 | 196 to 198 °C | – | CCOc1ccc(-c2c3ccccc3nn2-c2ccc(S(C)(=O)=O)cc2)cc1C(F)(F)F [compound 20, 3-[4-Ethoxy-3-(trifluoromethyl)phenyl]-2-(4-methylsulfonylphenyl)indazole] | –
18 | 147 to 149 °C | 4.46 ± 0.4 µM | CCOc1ccc(-c2c3ccccc3nn2-c2ccc(S(C)(=O)=O)cc2)cn1 [compound 26, 3-(6-Ethoxy-3-pyridyl)-2-(4-methylsulfonylphenyl)indazole] | COX-2 activity in words (human recombinant COX-2): moderate activity
